Assay type in all cases: in vivo
In test [1] the test system is inflammatory cell infiltration in spinal cord tissues of EAE mice model. Put plainly: Inflammatory cell infiltration in spinal cord, HE staining, EAE mice. As to conditions: positive control drug, dose not given, scale 0-4. The method, then:
(§1) Preparation of mice model and administration: experimental autoimmune encephalomyelitis (EAE) mice model is an important tool for studying various human demyelinating diseases of nervous system. In the present experiment, the preparation of EAE mice model was performed by immunizing female C57BL/6J mice with myelin sheath oligodendroglial cell surface glycoprotein MOG35-55. That is, the mice were subcutaneously injected at dorsal part of spinal column with 0.2 mL of MOG35-55 antigen elixir, and 0.2 ml of bordetella pertussis solution was intraperitoneally injected at the time of immunization injection and 48 h thereafter, respectively. Icariin was intragastrically administered after the last injection of bordetella pertussis solution, for consecutive 3 weeks.
Experimental objective: the pathological changes of spinal cord in EAE model, especially inflammatory cell infiltration situations was assayed by hematoxylin-eosin (HE) staining test, and the intervention effects of […] on these pathological changes were observed.
Experimental method: the mice were anesthetized with 10% chloral hydrate on the 28th day of experiment, fixed by perfusion of 4% paraformaldehyde, spinal cord tissues were taken for making paraffin sections, section thickness […]. Stained with HE, observed under microscope, and scored according to the following standard: 0 score, absence of cell infiltration; 1 score, spinal meninge cell infiltration; 2 score, 1 to 4 small ranges of cell infiltration around vessels; 3 score, 5 or more small ranges of cell infiltration around vessels, or one or more accumulatively substantial large range of cell infiltration; 4 score, a large number of cell infiltration ranges accumulatively existing in 20% or more of white matter regions.

A further test has as its system IL-1. Nature of the test: Serum IL-1 content by ELISA, EAE mice. As to conditions: positive control drug, dose not given. The protocol:
as §1
Experimental objective: interleukin-1 (IL-1) and IL-6 are important inflammatory cytokines, and have promoting effects on inflammatory reactions. This experiment used enzyme linked immunosorbent assay (ELISA) to measure contents of IL-1 and IL-6 in serums of EAE mice model, and the effects of icariin on these contents were observed.
Experimental method: mice were anesthetized with pentobarbital sodium, blood sample was taken from abdominal aorta, stood at room temperature for 2 h, centrifuged at 3000 rpm for 20 min, and supernatant was taken, stored at −80° C. for use. The operation was performed strictly according to the steps of specification of ELISA kit. Optical density was measured with ELIASA at 450 nm. The corresponding contents of IL-1 and IL-6 were calculated with the measured OD values on standard curves.

Test [2] relates to myelin basic protein (MBP). Put plainly: Spinal cord MBP by Western blot, EAE mice. As to conditions: positive control drug, dose not given. The protocol:
as §1
Experimental objective: myelin sheath is formed with prominences of oligodendroglial cells. CNPase, myelin basic protein (MBP) are marker proteins of mature oligodendroglial cells. The present experiment was to observe the expression of CNPase and MBP to represent the content of oligodendroglial cells in spinal cord of EAE model mice by Western blot method; and to study the effects of icariin on it.
Experimental method: the mice were anesthetized and sacrificed, fresh spinal cord was taken on ice, total protein was extracted by cleavage on ice, to prepare Western blot sample, added separately with CNPase, MBP primary antibodies and incubated, added with corresponding secondary antibodies, ECL colorated, Kodak film exposed. Pictures were analyzed with Image J software and standardized with β-actin.

Test [3] deals with inflammatory cell infiltration of spinal cord lumbar intumescentia in EAE rat model. Put plainly: Inflammatory cell infiltration of spinal cord lumbar intumescentia, HE staining, EAE rats. Particulars: positive control drug, dose not given, scale 0-4. The protocol: Preparation of rat model and administration: experimental autoimmune encephalomyelitis (EAE) model is an important tool for studying various human demyelinating diseases of nervous system. In the example, the preparation of EAE rat model was performed by multipoint immunizing female Lewis rats subcutaneously at tail root with a homogenate of spinal cord and cerebral gray matter of Guinea pig as well as complete Freund's adjuvant after emulsification. They were intragastrically administered with Epimedium flavanoids for 3 weeks. […]
Experimental method: the rats were anesthetized with 10% chloral hydrate on the 14th day of experiment, fixed by perfusion of 4% paraformaldehyde, spinal cord tissues were taken for making paraffin sections, section thickness 4 μm. (1) Stained with LFB, observed under microscope, and scored according to the following standard: 0 score, absence of myelinoclasis; 1 score, one small range of myelinoclasis; 2 score, 2 or 3 small ranges of myelinoclasis; 3 score, 1 to 2 large ranges of myelinoclasis; 4 score, large ranges of myelinoclasis accumulatively existing in 20% or more of white matter regions. […]

The subject of the next test is Malondialdehyde (MDA). Nature of the test: MDA content of cerebral cortex, biochemical kit, EAE rats. As to conditions: positive control drug, dose not given. The protocol: (§2) Preparation of rat model and administration: experimental autoimmune encephalomyelitis (EAE) model is an important tool for studying various human demyelinating diseases of nervous system. In the example, the preparation of EAE rat model was performed by multipoint immunizing female Lewis rats subcutaneously at tail root with a homogenate of spinal cord and cerebral gray matter of Guinea pig as well as complete Freund's adjuvant after emulsification. They were intragastrically administered with Epimedium flavanoids for 3 weeks.
Experimental objective: the lipid peroxidation between oxygen free radicals and unsaturated fatty acids of cell membranes and organelle membranes results in the damage, degradation, denaturation and dysfunction of membrane phospholipids. Malondialdehyde (MDA) is a metabolic product of lipid peroxidation, and the increase of MDA indicates the enhancement of lipid peroxidation, which may lead to damage of nerve cells and myelin sheath. Superoxide dismutase (SOD) can scavenge superoxide anions and is an important antioxidase in vivo. In this experiment, SOD activity and MDA content of brain tissues in EAE rat model were measured by biochemistry method, and the effects of Epimedium flavanoids on changes thereof were observed. […]

For another test, the system named is CNPase. Put plainly: CNPase positive cells of spinal cord lumbar intumescentia by immunohistochemical method, EAE rats. As to conditions: positive control drug, dose not given. The method, then: as §2
Experimental objective: myelin sheath is formed with prominences of oligodendroglial cells. 2′3′-cyclic […]-3′-phosphodiesterase (CNPase) is a marker protein of mature oligodendroglial cells. In this experiment, CNPase content of cerebral cortex in EAE rat model was measured by Western blot method, CNPase content of spinal cord lumbar intumescentia was measured by immunohistochemical method; and the effects of Epimedium flavanoids on these contents were observed.
Experimental method: the rats were anesthetized with 10% chloral hydrate on the 14th day of experiment, fixed by perfusion of 4% paraformaldehyde, spinal cord tissues were taken for frozen section. […] Pictures were analyzed using Image Pro plus5.0 software to count positive cells.

This is an account of results in patent US9050353B2, “Use of icariin and epimedium flavonoids containing icariin to treat diseases associated with myelin sheath lesion” (Xuanwu Hospital of Capital Medical University, priority 2010, dated 2015).

SMILES strings stand for the structures.

For `CC(=O)OCC(=O)[C@@]1(O)CC[C@H]2[C@@H]3CCC4=CC(=O)C=C[C@]4(C)[C@H]3C(=O)C[C@@]21C` [prednisone acetate], the entries for the “Inflammatory cell infiltration (HE staining score)” value in test [1] and in test [3] were 1.05 ± 0.13 and 1.00 ± 0.29, respectively. For the same molecule, the IL-1 content in the test on IL-1 worked out at 0.115 ± 0.001 pg/mL. The “MBP/actin Integration grey level” value in test [2] was determined as 1.05 ± 0.11. This molecule had an MDA content in the test on Malondialdehyde (MDA) of 1.03 ± 0.09 nmol/mg protein. Further, the “CNPase positive cell count” value with CNPase is 1378.2 ± 125.4.
